# How the values were obtained:
# Type in all cases: cell-based
# [1] = test system: PBMCs; test: PBMCs treated with HEMA or CDDP, FITC-Annexin V and PI; conditions: about 18 hours, highest concentration of CDDP, HEMA 0.0164M-0.00164M
# Source text: The cells were then stained with FITC-Annexin V and PI according to the manufacturer's protocol.
# [2] = test system: active caspase 3; test: Active caspase 3 staining in PBMCs treated with HEMA or CDDP; conditions: HEMA 0.0164M, CDDP
# [3] = test system: dental pulp stromal cells; test: Cell death of rat dental pulp stromal cells with ascorbic acid; conditions: overnight incubation; FITC Annexin V and PI
# Experimental: Rat dental pulp stromal cells were next treated with HEMA in the presence and absence of another antioxidant, ascorbic acid. After an overnight incubation following procedures similar to those described above, levels of cell death were determined using FITC Annexin V and PI. […] Role of Cell Differentiation Studies
# [4] = test system: Caspase 3; test: Full length caspase 3 in keratinocytes; conditions: about 8 hours, NAC 20 mM
# Source text: Roles of NFkB and GAPDH in HEMA-Mediated Cell Death
# [5] = test system: human dental pulp stromal cells; test: VEGF by ELISA, human dental pulp stromal cells, NAC versus vitamin E (Table 5); conditions: 4 hours
# Experimental: (§1) Following the 4 hour incubation, cells were analyzed for apoptosis using FTIC-Annexin V and PI.
# Dental pulp stromal cells were then treated as described in the preceding paragraph with supernatants removed and assayed for VEGF levels by ELISA following the 4 hour incubation.
# [6] = test system: human dental pulp stromal cells; test: Apoptosis of human dental pulp stromal cells, NAC versus vitamin E, 4 hours; conditions: HEMA (0.0082M), vitamin E (5 mM)
# Experimental: as §1
compound,measurement,setting,value
"N.N.[Cl][Pt][Cl] [CDDP, Cis-diaminedichloroplatinum (II)]",cells remained both PI and Annexin V negative,[1],80%
same,active caspase 3 staining,[2],22%
O=C1O[C@H]([C@@H](O)CO)C(O)=C1O [ascorbic acid],reversal of apoptosis induced by HEMA,[3],did not reverse apoptosis induced by HEMA
CC[C@@]1(O)C(=O)OCc2c1cc1n(c2=O)Cc2cc3ccccc3nc2-1 [camptothecin],levels of full length caspase 3 (processing of caspase 3),[4],moderate effect in processing of caspase 3
Vitamin E [Vit E],"VEGF levels by ELISA, Human dental pulp stromal cells","[5]; no HEMA, NAC (20 mM) and/or vitamin E (5 mM)",1966.2
same,prevention of HEMA mediated decrease in VEGF secretion,[5]; vitamin E (5 mM),failed to prevent the HEMA mediated decrease in VEGF secretion
same,inhibition of HEMA mediated cell death,[6],failed to inhibit HEMA mediated cell death
